In patent US20110172147A1, “NEUROPEPTIDE-2 RECEPTOR (Y-2R) AGONISTS” (priority 2009, published 2011):
pEC50: −log10 of the molar value.

Columns and labels:
hypothalamic slices = hypothalamic slices in vitro; cited from earlier work
Y1R = molecular target: T1, Y1R (Homo sapiens, UniProt P25929); assay: CaFlux Assay (FLIPR), Y1R; assay type: cell-based
T1 sequence (P25929 1-384): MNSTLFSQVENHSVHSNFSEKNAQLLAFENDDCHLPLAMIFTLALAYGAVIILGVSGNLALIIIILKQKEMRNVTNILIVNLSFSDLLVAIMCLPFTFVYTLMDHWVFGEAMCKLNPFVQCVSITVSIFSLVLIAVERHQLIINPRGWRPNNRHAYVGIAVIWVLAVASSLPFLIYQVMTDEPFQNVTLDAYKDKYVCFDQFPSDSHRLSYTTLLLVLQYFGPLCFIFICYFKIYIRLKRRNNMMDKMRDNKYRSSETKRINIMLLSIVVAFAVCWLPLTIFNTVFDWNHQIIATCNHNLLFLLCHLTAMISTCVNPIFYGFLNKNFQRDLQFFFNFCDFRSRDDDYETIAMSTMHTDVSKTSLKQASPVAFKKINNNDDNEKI

Y4R = Y4R (Homo sapiens, UniProt P50391); assay: CaFlux Assay (FLIPR), Y4R; assay type: cell-based
Sequence of Y4R (P50391 whole entry): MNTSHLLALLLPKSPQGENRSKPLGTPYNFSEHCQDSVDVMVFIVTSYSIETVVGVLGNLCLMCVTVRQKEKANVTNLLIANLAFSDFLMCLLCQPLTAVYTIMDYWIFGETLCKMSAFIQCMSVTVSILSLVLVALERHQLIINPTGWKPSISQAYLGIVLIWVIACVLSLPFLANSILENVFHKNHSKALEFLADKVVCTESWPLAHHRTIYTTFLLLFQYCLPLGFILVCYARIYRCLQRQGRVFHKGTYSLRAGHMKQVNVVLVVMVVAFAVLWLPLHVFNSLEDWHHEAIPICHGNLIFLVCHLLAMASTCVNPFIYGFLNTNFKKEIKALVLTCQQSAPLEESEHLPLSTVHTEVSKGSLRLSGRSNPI

Y5R = molecular target: T2, Y5R (Homo sapiens, UniProt Q15761); assay: CaFlux Assay (FLIPR), Y5R; assay type: cell-based
T2 sequence (Q15761 1-445): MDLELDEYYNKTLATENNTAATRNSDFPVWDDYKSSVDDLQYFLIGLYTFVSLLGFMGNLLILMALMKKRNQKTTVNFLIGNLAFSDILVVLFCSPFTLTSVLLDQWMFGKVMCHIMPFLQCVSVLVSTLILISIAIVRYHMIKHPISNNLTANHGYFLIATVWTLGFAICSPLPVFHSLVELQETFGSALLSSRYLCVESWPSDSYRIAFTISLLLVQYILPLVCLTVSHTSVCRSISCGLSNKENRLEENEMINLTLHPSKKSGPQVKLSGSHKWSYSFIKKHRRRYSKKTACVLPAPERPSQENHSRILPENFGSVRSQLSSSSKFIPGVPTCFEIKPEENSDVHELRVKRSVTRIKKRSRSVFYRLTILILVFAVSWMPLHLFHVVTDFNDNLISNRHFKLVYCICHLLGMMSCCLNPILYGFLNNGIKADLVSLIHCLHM

hNPY2R [1] = molecular target: T3, hNPY2R (Homo sapiens, UniProt P49146); assay: cAMP Agonist Assay, HEK293/hNPY2R; assay type: cell-based; set-up: expressed in transfected cells; host or cells: HEK293/hNPY2R (G418 selection)
T3 sequence (P49146 1-381): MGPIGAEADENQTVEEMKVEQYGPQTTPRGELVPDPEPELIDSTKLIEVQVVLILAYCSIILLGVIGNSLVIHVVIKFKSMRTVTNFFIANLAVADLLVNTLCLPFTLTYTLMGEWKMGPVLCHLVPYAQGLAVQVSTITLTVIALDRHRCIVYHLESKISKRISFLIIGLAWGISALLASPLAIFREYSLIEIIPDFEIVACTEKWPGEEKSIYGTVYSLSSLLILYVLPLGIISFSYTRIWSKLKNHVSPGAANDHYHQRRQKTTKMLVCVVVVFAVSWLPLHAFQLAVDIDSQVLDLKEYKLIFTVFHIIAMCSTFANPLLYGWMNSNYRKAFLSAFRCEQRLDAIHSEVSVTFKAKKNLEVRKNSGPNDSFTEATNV
Method in brief: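 HEK293/hNPY2R cells (10,000/well, overnight) stimulated 30 min at room temperature with compound plus 5 μM forskolin and 0.5 mM IBMX (1.1% DMSO final). Lysate cAMP measured by competitive chemiluminescent ELISA (AP conjugate, CSPD substrate); quadruplicates.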

hNPY2R [2] = molecular target: T3, hNPY2R; assay: CaFlux Assay (FLIPR), Y2R; assay type: cell-based; set-up: expressed in transfected cells; host or cells: HEK-293 stably transfected with G protein chimera Gαqi9
Method in brief: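 Read-out was the peak increase in Calcium-3 fluorescence on FLIPR, monitored 100 s after compound addition, with each well's pre-stimulation reading as zero and data given as % of the positive control's maximal response. Cells were HEK-293 stably carrying Gαqi9 plus receptor.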

For `N=C(N)NCCC[C@H](NC(=O)CC1(CC(=O)N2CCN(C3c4ccccc4NC(=O)c4ccccc43)CC2)CCCC1)C(=O)NCCn1c(=O)n(-c2ccccc2)n(-c2ccccc2)c1=O` (stereo partly shown) [BIIE0246], the NPY release (hypothalamic slices) is listed as “increases NPY release”.

`CCCCCCCCCCCCCCCC(=O)NCCOCCNC(=O)CCC(=O)NCCCC[C@H](NC(=O)[C@@H](NC(=O)CCOCCOCCOCCOCCOCCOCCOCCOCCOCCOCCOCCOCCOCCOCCOCCOCCOCCOCCOCCOCCOCCOCCOCCOC)[C@@H](C)CC)C(=O)N1CCN(c2ccc3ncn(CC(=O)N[C@@H](CCCNC(N)=O)C(=O)N[C@@H](Cc4c[nH]cn4)C(=O)N[C@@H](Cc4ccc(O)cc4)C(=O)N[C@@H](CC(C)C)C(=O)N[C@@H](CC(N)=O)C(=O)N[C@@H](Cc4c[nH]c5ccccc45)C(=O)N[C@H](C(=O)N[C@H](C(=O)N[C@@H](CCCNC(=N)N)C(=O)N[C@@H](CCC(N)=O)C(=O)N(C)[C@@H](CCCNC(=N)N)C(=O)N[C@@H](Cc4ccc(O)cc4)C(N)=O)[C@@H](C)O)C(C)C)c(=O)c3c2)CC1` [Example 16] gave a pEC50 (Y1R) of less than 5.30, a pEC50 (Y4R) of less than 5.30 and a pEC50 (Y5R) of 5.87. For the same compound, the pEC50 (hNPY2R [1]) was 10.05 and the pEC50 (hNPY2R [2]) was 10.23.

In the case of `CCCCCCCCCCCCCCCC(=O)NCCCCCC(=O)NCCCC[C@H](NC(=O)[C@@H](NC(=O)CCOCCOCCOCCOCCOCCOCCOCCOCCOCCOCCOCCOCCOCCOCCOCCOCCOCCOCCOCCOCCOCCOCCOCCOC)[C@@H](C)CC)C(=O)N1CCN(c2ccc3ncn(CC(=O)N[C@@H](CCCNC(=N)N)C(=O)N[C@@H](Cc4c[nH]cn4)C(=O)N[C@@H](Cc4ccc(O)cc4)C(=O)N[C@@H](CC(C)C)C(=O)N[C@@H](CC(N)=O)C(=O)N[C@@H](Cc4c[nH]c5ccccc45)C(=O)N[C@H](C(=O)N[C@H](C(=O)N[C@@H](CCCNC(=N)N)C(=O)N[C@@H](CCC(N)=O)C(=O)N(C)[C@@H](CCCNC(=N)N)C(=O)N[C@@H](Cc4ccc(O)cc4)C(N)=O)[C@@H](C)O)C(C)C)c(=O)c3c2)CC1` [Example 11], the pEC50 (Y1R) was less than 5.30, the pEC50 (Y4R) was less than 5.30 and the pEC50 (Y5R) was 6.04. It also gave a pEC50 (hNPY2R [1]) of 10.10 and a pEC50 (hNPY2R [2]) of 10.24.

In the case of `CCCCCCCCCCCCCCCCCCCC(=O)NCCCCCC(=O)N[C@H](C(=O)N[C@@H](CCCCNC(=O)CCOCCOCCOCCOCCOCCOCCOCCOCCOCCOCCOCCOCCOCCOCCOCCOCCOCCOCCOCCOCCOCCOCCOCCOC)C(=O)N1CCN(c2ccc3ncn(CC(=O)N[C@@H](CCCNC(N)=O)C(=O)N[C@@H](Cc4c[nH]cn4)C(=O)N[C@@H](Cc4ccc(O)cc4)C(=O)N[C@@H](CC(C)C)C(=O)N[C@@H](CC(N)=O)C(=O)N[C@@H](Cc4c[nH]c5ccccc45)C(=O)N[C@H](C(=O)N[C@H](C(=O)N[C@@H](CCCNC(=N)N)C(=O)N[C@@H](CCC(N)=O)C(=O)N(C)[C@@H](CCCNC(=N)N)C(=O)N[C@@H](Cc4ccc(O)cc4)C(N)=O)[C@@H](C)O)C(C)C)c(=O)c3c2)CC1)[C@@H](C)CC` [Example 33], the pEC50 (Y1R) was less than 5.22, the pEC50 (Y4R) was less than 5.22 and the pEC50 (Y5R) was 5.37. The pEC50 (hNPY2R [1]) was 9.89 and the pEC50 (hNPY2R [2]) was 9.90.
